# Structures can show the parent of a compound that is named as a salt.
# Key:
# Assay type in all cases: cell-based
# ATM kinase = ATM kinase (Homo sapiens (Human), UniProt Q13315); test: Assay a) ATM cellular potency assay (pATM Ser1981 in X-ray irradiated HT29 cells); conditions: HT29 cells, pATM Ser1981 after X-ray irradiation; geometric mean where repeated; read-out: Assay a) ATM Cell IC50
# ATR kinase = ATR kinase (Homo sapiens (Human), UniProt Q13535); test: Assay b) ATR cellular potency assay (pChk1 Ser345 in HT29 cells treated with 4NQO); conditions: HT29 cells, pChk1 Ser345 after 4NQO; geometric mean where repeated; read-out: Assay b) ATR Cell IC50
# ATR kinase, sequence (Q13535 whole entry): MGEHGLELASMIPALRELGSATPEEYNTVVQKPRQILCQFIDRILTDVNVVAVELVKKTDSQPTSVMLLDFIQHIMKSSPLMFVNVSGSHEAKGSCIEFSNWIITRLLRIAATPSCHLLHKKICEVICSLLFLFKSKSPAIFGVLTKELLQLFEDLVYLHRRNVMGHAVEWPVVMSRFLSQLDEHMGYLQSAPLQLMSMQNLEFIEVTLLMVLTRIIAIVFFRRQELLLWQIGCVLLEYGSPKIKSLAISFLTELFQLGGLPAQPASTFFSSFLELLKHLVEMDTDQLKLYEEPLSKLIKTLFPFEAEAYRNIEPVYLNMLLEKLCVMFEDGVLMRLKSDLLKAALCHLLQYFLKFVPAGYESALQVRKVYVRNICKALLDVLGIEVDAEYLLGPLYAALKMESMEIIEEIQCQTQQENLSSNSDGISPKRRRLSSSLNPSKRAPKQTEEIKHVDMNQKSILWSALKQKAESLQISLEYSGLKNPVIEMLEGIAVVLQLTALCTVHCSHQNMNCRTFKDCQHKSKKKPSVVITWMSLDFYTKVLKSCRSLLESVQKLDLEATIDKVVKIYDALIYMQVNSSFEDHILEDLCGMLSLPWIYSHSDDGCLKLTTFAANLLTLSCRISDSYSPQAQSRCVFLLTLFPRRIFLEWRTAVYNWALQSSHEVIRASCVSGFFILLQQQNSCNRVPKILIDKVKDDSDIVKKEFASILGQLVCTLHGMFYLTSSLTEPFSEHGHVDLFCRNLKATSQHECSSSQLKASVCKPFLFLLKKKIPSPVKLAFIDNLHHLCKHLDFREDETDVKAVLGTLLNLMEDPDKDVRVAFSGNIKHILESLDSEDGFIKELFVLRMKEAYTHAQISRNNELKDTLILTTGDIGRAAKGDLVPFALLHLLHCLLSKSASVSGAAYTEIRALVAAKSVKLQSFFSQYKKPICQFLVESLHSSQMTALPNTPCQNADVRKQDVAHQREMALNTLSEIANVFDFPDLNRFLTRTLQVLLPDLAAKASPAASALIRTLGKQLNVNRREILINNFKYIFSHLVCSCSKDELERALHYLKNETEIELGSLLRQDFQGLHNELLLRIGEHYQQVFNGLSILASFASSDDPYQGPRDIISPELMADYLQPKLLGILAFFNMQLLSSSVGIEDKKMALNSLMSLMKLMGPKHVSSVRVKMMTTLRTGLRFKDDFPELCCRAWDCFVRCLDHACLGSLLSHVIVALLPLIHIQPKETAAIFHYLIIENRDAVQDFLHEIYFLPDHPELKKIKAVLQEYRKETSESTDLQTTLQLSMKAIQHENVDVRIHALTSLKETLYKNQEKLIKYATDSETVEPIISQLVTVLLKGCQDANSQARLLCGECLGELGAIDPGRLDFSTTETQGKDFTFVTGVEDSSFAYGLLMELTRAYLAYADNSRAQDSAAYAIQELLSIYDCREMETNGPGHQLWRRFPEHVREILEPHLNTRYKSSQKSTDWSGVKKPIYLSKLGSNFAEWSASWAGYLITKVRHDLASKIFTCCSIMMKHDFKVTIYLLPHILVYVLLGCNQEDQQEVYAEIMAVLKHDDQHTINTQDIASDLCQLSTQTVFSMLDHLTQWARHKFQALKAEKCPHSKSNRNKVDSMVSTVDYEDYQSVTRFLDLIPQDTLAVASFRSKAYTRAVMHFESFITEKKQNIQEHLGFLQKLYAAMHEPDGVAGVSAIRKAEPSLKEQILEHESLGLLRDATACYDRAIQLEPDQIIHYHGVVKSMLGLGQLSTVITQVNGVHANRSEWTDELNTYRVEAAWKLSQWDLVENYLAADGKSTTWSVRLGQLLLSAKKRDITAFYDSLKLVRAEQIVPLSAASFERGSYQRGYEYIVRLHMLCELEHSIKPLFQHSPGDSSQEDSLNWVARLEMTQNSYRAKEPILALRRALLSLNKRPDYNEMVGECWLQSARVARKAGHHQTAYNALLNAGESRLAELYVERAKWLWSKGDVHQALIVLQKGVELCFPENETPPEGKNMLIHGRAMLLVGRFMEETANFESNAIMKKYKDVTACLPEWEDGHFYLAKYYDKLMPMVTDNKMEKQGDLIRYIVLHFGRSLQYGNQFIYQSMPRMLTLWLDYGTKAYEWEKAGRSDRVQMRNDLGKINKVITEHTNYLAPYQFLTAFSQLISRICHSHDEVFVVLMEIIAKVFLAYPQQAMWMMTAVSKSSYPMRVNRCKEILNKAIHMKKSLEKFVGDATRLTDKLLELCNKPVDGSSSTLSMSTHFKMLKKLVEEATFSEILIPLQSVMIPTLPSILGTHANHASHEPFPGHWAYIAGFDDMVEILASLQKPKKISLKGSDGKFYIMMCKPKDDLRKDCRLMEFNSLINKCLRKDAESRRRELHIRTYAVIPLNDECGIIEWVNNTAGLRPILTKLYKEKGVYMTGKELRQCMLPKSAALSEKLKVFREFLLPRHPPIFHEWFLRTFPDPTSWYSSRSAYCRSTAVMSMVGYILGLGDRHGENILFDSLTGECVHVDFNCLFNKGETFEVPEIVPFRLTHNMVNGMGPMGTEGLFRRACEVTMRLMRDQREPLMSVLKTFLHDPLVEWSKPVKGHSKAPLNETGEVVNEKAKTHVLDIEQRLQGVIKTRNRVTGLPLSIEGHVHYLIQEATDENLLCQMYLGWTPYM
# ATR kinase, sequence (Q8WXE1 whole entry partner): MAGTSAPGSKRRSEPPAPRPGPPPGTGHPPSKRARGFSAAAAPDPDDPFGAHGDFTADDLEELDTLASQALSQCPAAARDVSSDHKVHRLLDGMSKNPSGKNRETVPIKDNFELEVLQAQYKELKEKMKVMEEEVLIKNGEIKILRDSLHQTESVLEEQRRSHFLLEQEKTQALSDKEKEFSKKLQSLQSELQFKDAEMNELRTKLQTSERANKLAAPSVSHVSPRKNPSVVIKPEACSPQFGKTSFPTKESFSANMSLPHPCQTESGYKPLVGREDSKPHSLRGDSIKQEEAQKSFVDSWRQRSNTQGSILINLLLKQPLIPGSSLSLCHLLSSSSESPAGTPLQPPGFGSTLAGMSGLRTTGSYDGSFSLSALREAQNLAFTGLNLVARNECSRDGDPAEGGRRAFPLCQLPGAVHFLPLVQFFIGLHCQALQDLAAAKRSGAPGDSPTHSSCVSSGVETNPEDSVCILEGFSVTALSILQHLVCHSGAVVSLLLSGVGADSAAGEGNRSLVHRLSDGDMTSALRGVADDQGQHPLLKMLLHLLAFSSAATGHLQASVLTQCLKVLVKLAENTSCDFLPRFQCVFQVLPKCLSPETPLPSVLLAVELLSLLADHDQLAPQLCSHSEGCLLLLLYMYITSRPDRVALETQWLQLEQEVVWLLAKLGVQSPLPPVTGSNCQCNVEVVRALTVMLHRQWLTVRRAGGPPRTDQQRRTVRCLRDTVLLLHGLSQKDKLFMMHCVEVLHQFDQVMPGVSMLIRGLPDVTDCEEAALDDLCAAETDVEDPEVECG
# PI3K-α = PI3K-α (Homo sapiens, UniProt P42336); test: Assay c) PI3K cellular potency assay (phospho-Akt T308 ELISA in BT474 cells); conditions: BT474 cells, phospho-Akt T308, 2 h; geometric mean where repeated; read-out: Assay c) PI3Kα Cell IC50
# PI3K-α, sequence (P42336 whole entry, looked up): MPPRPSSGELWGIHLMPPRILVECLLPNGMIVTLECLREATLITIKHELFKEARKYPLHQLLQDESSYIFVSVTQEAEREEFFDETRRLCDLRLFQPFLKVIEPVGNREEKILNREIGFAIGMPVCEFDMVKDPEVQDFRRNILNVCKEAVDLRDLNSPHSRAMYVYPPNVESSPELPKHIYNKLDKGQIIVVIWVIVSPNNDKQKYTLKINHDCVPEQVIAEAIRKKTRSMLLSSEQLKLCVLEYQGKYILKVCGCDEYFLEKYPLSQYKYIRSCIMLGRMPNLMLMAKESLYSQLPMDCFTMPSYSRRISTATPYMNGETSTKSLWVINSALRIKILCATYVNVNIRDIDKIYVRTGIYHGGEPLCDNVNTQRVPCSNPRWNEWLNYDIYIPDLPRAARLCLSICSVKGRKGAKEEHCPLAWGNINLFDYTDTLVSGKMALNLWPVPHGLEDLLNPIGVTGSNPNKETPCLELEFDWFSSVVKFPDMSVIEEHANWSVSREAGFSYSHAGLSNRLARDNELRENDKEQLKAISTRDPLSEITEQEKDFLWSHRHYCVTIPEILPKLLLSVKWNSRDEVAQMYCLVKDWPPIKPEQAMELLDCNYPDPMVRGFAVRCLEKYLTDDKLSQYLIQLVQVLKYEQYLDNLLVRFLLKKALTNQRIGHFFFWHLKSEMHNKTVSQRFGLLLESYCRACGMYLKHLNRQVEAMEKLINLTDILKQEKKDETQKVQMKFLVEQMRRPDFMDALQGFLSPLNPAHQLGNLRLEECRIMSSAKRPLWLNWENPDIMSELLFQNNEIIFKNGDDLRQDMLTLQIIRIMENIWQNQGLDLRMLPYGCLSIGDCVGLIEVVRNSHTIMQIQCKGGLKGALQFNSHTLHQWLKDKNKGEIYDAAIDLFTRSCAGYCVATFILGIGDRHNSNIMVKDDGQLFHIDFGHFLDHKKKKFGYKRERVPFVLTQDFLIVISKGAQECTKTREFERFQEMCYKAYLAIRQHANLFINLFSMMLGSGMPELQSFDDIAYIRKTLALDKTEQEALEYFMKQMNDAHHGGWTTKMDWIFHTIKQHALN
# mTOR = mTOR (Homo sapiens (Human), UniProt P42345); test: Assay d) mTOR cellular potency assay (phospho-AKT Ser473 in MDA-MB-468 cells); conditions: MDA-MB-468 cells, phospho-AKT Ser473, 2 h; geometric mean where repeated; read-out: Assay d) mTOR Cell IC50
Compound,IC50 (ATM kinase),IC50 (ATR kinase),IC50 (PI3K-α),IC50 (mTOR)
"CO[C@@H]1CC[C@@H](n2c(=O)n(C)c3cnc4ccc(-c5ccc(OCCCN6CCCCC6)nc5)cc4c32)C1 [Example 64, 1-[(1R,3R)-3-Methoxycyclopentyl]-3-methyl-8-[6-[3-(1-piperidyl)propoxy]-3-pyridyl]imidazo[4,5-c]quinolin-2-one]",0.000741 µM,> 24.1 µM,> 30 µM,12 µM
"Cn1c(=O)n(C2CCC2)c2c3cc(-c4ccc(OCCCN5CCCCC5)nc4)ccc3ncc21 [Example 57, 1-cyclobutyl-3-methyl-8-[6-[3-(1-piperidyl)propoxy]-3-pyridyl]imidazo[4,5-c]quinolin-2-one trifluoroacetic acid salt]",0.000434 µM,> 30 µM,> 14.3 µM,5.77 µM
"CO[C@@H]1CC[C@@H](n2c(=O)n(C)c3cnc4ccc(-c5ccc(OCCCN(C)C)nc5F)cc4c32)C1 [Example 68, 8-[6-[3-(Dimethylamino)propoxy]-2-fluoro-3-pyridyl]-1-[(1R,3R)-3-methoxycyclopentyl]-3-methyl-imidazo[4,5-c]quinolin-2-one]",0.000208 µM,> 29 µM,0.644 µM,3.18 µM
"CN(C)CCCOc1ccc(-c2ccc3ncc4c(c3c2)n([C@@H]2CCOC2)c(=O)n4C)cn1 [Example 44, 8-[6-[3-(Dimethylamino)propoxy]-3-pyridyl]-3-methyl-1-[(3R)-tetrahydrofuran-3-yl]imidazo[4,5-c]quinolin-2-one methanesulfonic acid salt]",0.00107 µM,> 19.2 µM,0.56 µM,2.37 µM
"CO[C@@H]1CC[C@H](n2c(=O)n(C)c3cnc4cc(F)c(-c5ccc(OCCCN(C)C)nc5)cc4c32)C1 [Example 71, 8-[6-[3-(dimethylamino)propoxy]-3-pyridyl]-7-fluoro-1-[(1S,3R)-3-methoxycyclopentyl]-3-methyl-imidazo[4,5-c]quinolin-2-one]",0.00145 µM,> 30 µM,> 11.4 µM,15.2 µM
"Cn1c(=O)n([C@@H]2CCCOC2)c2c3cc(-c4ccc(OCCCN5CCCCC5)nc4)ccc3ncc21 [Example 32, 3-methyl-1-[(3R)-oxan-3-yl]-8-[6-(3-piperidin-1-ylpropoxy)pyridin-3-yl]imidazo[5,4-c]quinolin-2-one]",0.00178 µM,> 30 µM,2.94 µM,6.1 µM
"Cn1c(=O)n([C@@H]2CCCOC2)c2c3cc(-c4ccc(OCCCN5CCCC5)nc4)c(F)cc3ncc21 [Example 24, 7-fluoro-3-methyl-8-[6-(3-pyrrolidin-1-ylpropoxy)-3-pyridyl]-1-[(3R)-tetrahydropyran-3-yl]imidazo[4,5-c]quinolin-2-one]",0.00069 µM,> 18.8 µM,7.29 µM,> 9.43 µM
"Cn1c(=O)n([C@H]2CCCOC2)c2c3cc(-c4ccc(OCCCN5CCCCC5)nc4)ccc3ncc21 [Example 31, 3-methyl-1-[(3S)-oxan-3-yl]-8-[6-(3-piperidin-1-ylpropoxy)pyridin-3-yl]imidazo[5,4-c]quinolin-2-one]",0.00109 µM,> 30 µM,> 10.9 µM,19.5 µM
"Cn1c(=O)n([C@H]2CCCOC2)c2c3cc(-c4ccc(OCCCN5CCCCC5)nc4)c(F)cc3ncc21 [Example 47, 7-Fluoro-3-methyl-8-[6-[3-(1-piperidyl)propoxy]-3-pyridyl]-1-[(3S)-tetrahydropyran-3-yl]imidazo[4,5-c]quinolin-2-one methanesulfonic acid salt]",0.000799 µM,> 30 µM,> 23.5 µM,> 30 µM
"Cn1c(=O)n(C2CCCOC2)c2c3cc(-c4ccc(OCCCN5CCC5)nc4)ccc3ncc21 (stereo in doubt) [Example 60, 8-[6-[3-(azetidin-1-yl)propoxy]-3-pyridyl]-3-methyl-1-[(3S)-tetrahydropyran-3-yl]imidazo[4,5-c]quinolin-2-one]",0.000765 µM,> 24 µM,0.499 µM,1.36 µM
"O=c1[nH]c2cnc3ccc(-c4ccc(OCCCN5CCCCC5)nc4)cc3c2n1C1CCOCC1 [Example 36, 1-(oxan-4-yl)-8-[6-(3-piperidin-1-ylpropoxy)pyridin-3-yl]-3H-imidazo[4,5-c]quinolin-2-one]",0.00301 µM,> 30 µM,> 25 µM,10.6 µM
"CN(C)CCCOc1ccc(-c2cc3c(cc2F)ncc2c3n(C3COC3)c(=O)n2C)cn1 [Example 9, 8-[6-(3-dimethylaminopropoxy)pyridin-3-yl]-7-fluoro-3-methyl-1-(oxetan-3-yl)imidazo[5,4-c]quinolin-2-one]",0.0038 µM,> 30 µM,> 29.1 µM,> 21.3 µM
"CN(C)CCCOc1ccc(-c2ccc3ncc4c(c3c2)n(C2CCC2)c(=O)n4C)c(F)n1 [Example 51, 1-cyclobutyl-8-[6-[3-(dimethylamino)propoxy]-2-fluoro-3-pyridyl]-3-methyl-imidazo[4,5-c]quinolin-2-one methanesulfonic acid salt]",0.000722 µM,> 30 µM,3.2 µM,5.38 µM

# Source: patent US9428503B2, “Imidazo[4,5-c]quinolin-2-one compounds and their use in treating Cancer” (AstraZeneca AB, priority 2014, dated 2016)
